Where “and” joins values, the source holds several entries; their conditions need not be identical. Equal values may be shown once. Read-outs that look alike come from different tables or passages of the source.
Columns and labels:
[1] = test system: OAT1; assay: OAT1 protein expression in kidney of HUA mice (Western blot); conditions: gigantol medium-dose and high-dose groups (10, 20 mg/kg), vs model group, p < 0.01
[2] = test system: ASC; assay: ASC protein expression in HK-2 cells (Western blot); conditions: for asc / β (reference protein) ratio / asc protein expression, band value: HK-2, replicates 1-3; for ASC protein level in HK-2 cells: HUA cell model
[3] = test system: TNF-α; assay: TNF-α level in serum and kidney of HUA mice (ELISA); type: in vivo; conditions: HUA mice treated with gigantol; vs model group; p < 0.01
Procedure: (§1) Blood obtained from mice in each group was centrifuged at 3,000 r/min for 15 min in a low-temperature high-speed centrifuge. Then, the serum was separated, and the levels of UA, CRE, and BUN in the serum were measured by the kits. The levels of TNF-α, IL-1β, IL-6, and NLRP3 in serum were detected by ELISA kits. Liver and kidney tissues were homogenized by adding ice-cold saline, and homogenates were centrifuged at 12,000 r/min for 10 min. XOD activity in the supernatant of the liver tissues was measured, and the levels of TNF-α, IL-1β, IL-6, and NLRP3 in the supernatant of the kidney tissues were measures by ELISA kits.

[4] = test system: ASC; assay: ASC protein expression in kidney of HUA mice (Western blot); type: in vivo; conditions: gigantol high-dose group (20 mg/kg), vs model group, p < 0.001
[5] = test system: liver tissue in mice with HUA; assay: Liver histopathology of HUA mice (HE staining); type: in vivo; conditions: 200×, gigantol 5, 10, 20 mg/kg
Description: (§2) The kidney and liver tissues were fixed with 4% paraformaldehyde solution. After paraffin embedding and sectioning, the paraffin on the slide was removed with xylene and soaked in different concentrations of ethanol and deionized water. The liver and kidney tissues were stained according to the HE staining procedure, and then the morphology of the kidney tissues and liver tissues was observed under the microscope.

[6] = test system: XOD; conditions: HUA cell model; gigantol 25, 50, 100 μmol/L, dose-dependent; vs model; p < 0.05, p < 0.001, p < 0.001
[7] = test system: NLRP3; assay: NLRP3 content in serum and kidney of HUA mice (ELISA); type: in vivo; conditions: gigantol low, medium, high dose intragastric, vs model group
Procedure: as §1

[8] = test system: NLRP3; assay: NLRP3 content in HK-2 HUA cell model (ELISA); type: cell-based, human; conditions: gigantol 25, 50, 100 µmol/L, dose-dependent
Procedure: (§3) HK-2 cells were treated as described above. The supernatant of the medium was collected, and the levels of proinflammatory cytokines (TNF-α, IL-6, and IL-1β) and the NLRP3 inflammasome component in the supernatant were detected using commercially available ELISA kits according to the manufacturers’ protocols.

[9] = test system: HK-2 cells; assay: UA level in HK-2 HUA cell model; type: cell-based, human; conditions: adenosine + XOD induced; gigantol 25, 50, 100 μmol/L; p < 0.001
[10] = test system: OAT3; assay: OAT3 protein expression in HK-2 cells (Western blot); conditions: for OAT3 / β (reference protein) ratio / OAT3 protein expression, band value: HK-2, replicates 1-3
[11] = test system: NLRP3; assay: NLRP3 protein expression in HK-2 cells (Western blot); conditions: for NLRP3 / β (reference protein) ratio / NLRP3 protein expression, band value: HK-2, replicates 1-3; for NLRP3 protein level in HK-2 cells: HUA cell model
[12] = test system: GLUT9; assay: GLUT9 protein expression in HK-2 cells (Western blot); conditions: for GLUT (GLUT9) / β (reference protein) ratio / GLUT (GLUT9) protein expression, band value: HK-2, replicates 1-3; for GLUT9 protein expression in HK-2 cells: HUA cell model, gigantol 25, 50, 100 µmol/L, especially high-dose (p < 0.001), vs model
[13] = test system: IL-6; assay: IL-6 level in serum and kidney of HUA mice (ELISA); type: in vivo; conditions: HUA mice treated with gigantol; vs model group; p < 0.01
Procedure: as §1

[14] = test system: NLRP3; assay: NLRP3 protein expression in kidney of HUA mice (Western blot); type: in vivo; conditions: gigantol high-dose group (20 mg/kg), vs model group, p < 0.01
[15] = test system: caspase-1; assay: Caspase-1 protein expression in kidney of HUA mice (Western blot); type: in vivo; conditions: gigantol high-dose group (20 mg/kg), vs model group, p < 0.001
[16] = test system: TNF-α; assay: TNF-α level in HK-2 HUA cell model (ELISA); type: cell-based, human; conditions: adenosine and XOD induction; gigantol 25, 50, 100 μmol/L
Procedure: as §3

[17] = test system: IL-6; assay: IL-6 level in HK-2 HUA cell model (ELISA); type: cell-based, human; conditions: adenosine and XOD induction; gigantol 25, 50, 100 μmol/L
Procedure: as §3

[18] = test system: IL-1β; assay: IL-1β content in serum and kidney of HUA mice (ELISA); type: in vivo; conditions: gigantol low, medium, high dose intragastric, vs model group
Procedure: as §1

[19] = molecular target: T1, XOD (Mus musculus, UniProt Q00519); type: in vivo; conditions: HUA mice, vs model group
T1 construct: XOD activity in the supernatant of the liver tissues was measured; from tissue; host or cells: liver of male KM mice (hyperuricemia model, potassium oxonate)

[20] = test system: XOD; conditions: HUA mice; each dose of gigantol (5, 10, 20 mg/kg); vs model group; p < 0.01, p < 0.01, p < 0.001
[21] = test system: OAT3; assay: OAT3 protein expression in kidney of HUA mice (Western blot); conditions: vs model group
[22] = test system: renal tissue in mice with HUA; assay: Renal histopathology of HUA mice (HE staining); type: in vivo; conditions: 200×, gigantol-treated groups
Description: as §2

[23] = test system: OAT1; assay: OAT1 protein expression in HK-2 cells (Western blot); conditions: for OAT1 / β (reference protein) ratio / OAT1 protein expression, band value: HK-2, replicates 1-3
[24] = 50 and 100 µmol/L gigantol, vs model group
[25] = gigantol intervention, especially high-dose group (p < 0.001), vs model
[26] = HUA cell model, 50 and 100 µmol/L, vs model group
[27] = HUA cell model, gigantol 25, 50, 100 µmol/L, dose-dependent

T1 sequence (Q00519 whole entry): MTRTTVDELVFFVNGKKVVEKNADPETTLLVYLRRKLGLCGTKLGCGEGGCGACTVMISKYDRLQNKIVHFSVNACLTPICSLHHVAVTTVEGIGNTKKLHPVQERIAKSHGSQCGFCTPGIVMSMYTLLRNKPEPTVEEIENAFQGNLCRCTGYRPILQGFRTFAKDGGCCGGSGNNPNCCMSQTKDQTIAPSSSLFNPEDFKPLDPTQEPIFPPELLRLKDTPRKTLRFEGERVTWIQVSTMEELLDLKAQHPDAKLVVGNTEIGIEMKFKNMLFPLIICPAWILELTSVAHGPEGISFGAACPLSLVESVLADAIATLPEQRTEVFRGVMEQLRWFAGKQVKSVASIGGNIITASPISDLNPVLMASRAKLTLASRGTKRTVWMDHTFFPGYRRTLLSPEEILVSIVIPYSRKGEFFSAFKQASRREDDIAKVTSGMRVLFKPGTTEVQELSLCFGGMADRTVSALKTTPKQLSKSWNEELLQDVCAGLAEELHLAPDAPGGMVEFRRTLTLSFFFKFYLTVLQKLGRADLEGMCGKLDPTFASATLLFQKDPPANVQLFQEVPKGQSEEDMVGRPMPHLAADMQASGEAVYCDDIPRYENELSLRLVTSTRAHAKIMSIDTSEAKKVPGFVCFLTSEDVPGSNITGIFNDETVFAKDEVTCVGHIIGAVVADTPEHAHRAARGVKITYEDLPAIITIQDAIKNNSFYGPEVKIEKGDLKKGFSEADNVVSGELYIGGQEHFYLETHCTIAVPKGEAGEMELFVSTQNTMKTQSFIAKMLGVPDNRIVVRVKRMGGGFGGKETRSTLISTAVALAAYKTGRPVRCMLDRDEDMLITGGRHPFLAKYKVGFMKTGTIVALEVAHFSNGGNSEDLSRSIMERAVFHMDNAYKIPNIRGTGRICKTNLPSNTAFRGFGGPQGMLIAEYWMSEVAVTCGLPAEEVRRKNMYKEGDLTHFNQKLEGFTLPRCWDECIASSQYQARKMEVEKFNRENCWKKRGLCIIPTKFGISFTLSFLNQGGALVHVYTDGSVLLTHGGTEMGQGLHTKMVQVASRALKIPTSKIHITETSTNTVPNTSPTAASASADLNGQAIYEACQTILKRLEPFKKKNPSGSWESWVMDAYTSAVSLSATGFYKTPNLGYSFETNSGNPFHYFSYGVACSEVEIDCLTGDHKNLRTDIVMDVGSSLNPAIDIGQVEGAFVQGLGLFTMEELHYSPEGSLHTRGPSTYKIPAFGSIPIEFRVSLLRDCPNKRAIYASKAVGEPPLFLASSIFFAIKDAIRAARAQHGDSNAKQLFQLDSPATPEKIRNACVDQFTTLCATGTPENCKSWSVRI

Substance: 5-[2-(3-hydroxy-5-methoxyphenyl) ethyl]-2-methoxyphenol [gigantol]
- OAT1 protein expression in kidney [1]: increased
- asc / β (reference protein) ratio ([2]; 中 = gigantol 50 µmol/L): 0.7729 and 0.7908 and 0.8759
- asc protein expression, band value ([2]; 中 = gigantol 50 µmol/L): 134.385 and 146.868 and 166.261
- asc / β (reference protein) ratio ([2]; 低 = gigantol 25 µmol/L): 0.9783 and 1.053 and 1.058
- asc protein expression, band value ([2]; 低 = gigantol 25 µmol/L): 161.976 and 197.704 and 190.261
- asc / β (reference protein) ratio ([2]; 高 = gigantol 100 µmol/L): 0.7353 and 0.6853 and 0.7512
- asc protein expression, band value ([2]; 高 = gigantol 100 µmol/L): 136.893 and 134.134 and 146.281
- ASC protein level in HK-2 cells [2, 24]: significantly reduced
- ASC protein level in HK-2 cells [2, 25]: decreased significantly
- renal TNF-α level [3]: significantly lower
- serum TNF-α level [3]: significantly lower
- ASC protein expression in kidney [4]: decreased significantly
- liver histopathology [5]: the atrophy of liver cells significantly improved
- XOD activity in AML12 cells [6]: downregulated
- NLRP3 level in kidney [7]: decreased
- NLRP3 level in serum [7]: decreased
- NLRP3 in HK-2 cells [8]: significantly reduced
- UA level in HK-2 cells [9]: suppressed
- OAT3 / β (reference protein) ratio ([10]; 中 = gigantol 50 µmol/L): 1.0464 and 0.924 and 0.8748
- OAT3 protein expression, band value ([10]; 中 = gigantol 50 µmol/L): 181.929 and 171.604 and 166.063
- OAT3 / β (reference protein) ratio ([10]; 低 = gigantol 25 µmol/L): 0.8292 and 0.8811 and 0.9428
- OAT3 protein expression, band value ([10]; 低 = gigantol 25 µmol/L): 137.293 and 165.504 and 169.481
- OAT3 / β (reference protein) ratio ([10]; 高 = gigantol 100 µmol/L): 0.9571 and 0.9652 and 1.021
- OAT3 protein expression, band value ([10]; 高 = gigantol 100 µmol/L): 178.19 and 188.909 and 198.88
- OAT3 protein level in HK-2 cells [10, 26]: significantly increased
- OAT3 protein expression in HK-2 cells [10, 27]: increase
- NLRP3 / β (reference protein) ratio ([11]; 中 = gigantol 50 µmol/L): 0.7212 and 0.9246 and 0.7381
- NLRP3 protein expression, band value ([11]; 中 = gigantol 50 µmol/L): 125.385 and 171.712 and 140.12
- NLRP3 / β (reference protein) ratio ([11]; 低 = gigantol 25 µmol/L): 0.7726 and 0.9621 and 1.043
- NLRP3 protein expression, band value ([11]; 低 = gigantol 25 µmol/L): 127.912 and 180.721 and 187.495
- NLRP3 / β (reference protein) ratio ([11]; 高 = gigantol 100 µmol/L): 0.5752 and 0.7261 and 0.6462
- NLRP3 protein expression, band value ([11]; 高 = gigantol 100 µmol/L): 107.093 and 142.123 and 125.837
- NLRP3 protein level in HK-2 cells ([11]; 25 μmol/L gigantol, vs model group): moderately reduced
- NLRP3 protein level in HK-2 cells [11, 24]: significantly reduced
- NLRP3 protein level in HK-2 cells [11, 25]: decreased significantly
- GLUT (GLUT9) / β (reference protein) ratio ([12]; 中 = gigantol 50 µmol/L): 0.824 and 0.7786 and 0.7289
- GLUT (GLUT9) protein expression, band value ([12]; 中 = gigantol 50 µmol/L): 143.264 and 144.598 and 138.372
- GLUT (GLUT9) / β (reference protein) ratio ([12]; 低 = gigantol 25 µmol/L): 0.9479 and 0.8166 and 0.8642
- GLUT (GLUT9) protein expression, band value ([12]; 低 = gigantol 25 µmol/L): 156.942 and 153.38 and 155.361
- GLUT (GLUT9) / β (reference protein) ratio ([12]; 高 = gigantol 100 µmol/L): 0.7095 and 0.5035 and 0.629
- GLUT (GLUT9) protein expression, band value ([12]; 高 = gigantol 100 µmol/L): 132.094 and 98.555 and 122.472
- GLUT9 protein expression in HK-2 cells [12]: significantly decreased
- GLUT9 protein expression in HK-2 cells ([12]; listed as Gigantol): decreased
- renal IL-6 level [13]: significantly lower
- serum IL-6 level [13]: significantly lower
- NLRP3 protein expression in kidney [14]: decreased significantly
- caspase-1 protein expression in kidney [15]: decreased significantly
- TNF-α level in HK-2 cells [16]: tended to decrease dose-dependently
- IL-6 level in HK-2 cells [17]: tended to decrease dose-dependently
- IL-1β level in kidney [18]: decreased
- IL-1β level in serum [18]: decreased
- XOD activity in mice liver ([19]; gigantol high dose (20 mg/kg), p < 0.001): inhibited
- XOD activity in mice liver ([19]; gigantol low and middle doses (5, 10 mg/kg), p > 0.05): no significant difference
- XOD protein expression in liver [20]: significantly decreased
- OAT3 protein expression in kidney ([21]; gigantol low-dose group (5 mg/kg)): not in the low-dose group
- OAT3 protein expression in kidney ([21]; gigantol medium-dose and high-dose groups (10, 20 mg/kg), p < 0.05): increased
- renal histopathology: glomerulus injury [22]: a trend of recovery in the injury of the glomerulus
- renal histopathology: urate crystals [22]: no urate crystals in the renal tubules
- OAT1 / β (reference protein) ratio ([23]; 中 = gigantol 50 µmol/L): 1.086 and 1.108 and 1.097
- OAT1 protein expression, band value ([23]; 中 = gigantol 50 µmol/L): 188.76 and 205.851 and 208.271
- OAT1 / β (reference protein) ratio ([23]; 低 = gigantol 25 µmol/L): 1.029 and 1.058 and 0.975
- OAT1 protein expression, band value ([23]; 低 = gigantol 25 µmol/L): 170.32 and 198.69 and 175.271
- OAT1 / β (reference protein) ratio ([23]; 高 = gigantol 100 µmol/L): 1.06 and 1.0745 and 1.075
- OAT1 protein expression, band value ([23]; 高 = gigantol 100 µmol/L): 197.371 and 210.308 and 209.271
- OAT1 protein level in HK-2 cells [23, 26]: significantly increased
- OAT1 protein expression in HK-2 cells [23, 27]: increase

— paper PMC12339328, “Therapeutic effect and mechanism of gigantol on hyperuricemia” (Frontiers in Endocrinology, 2025)
